The source of these data is ChEMBL document CHEMBL3822381, “Design, synthesis, and evaluation of Trolox-conjugated amyloid-β C-terminal peptides for therapeutic intervention in an in vitro model of Alzheimer's disease” (Bioorg Med Chem, 2016).

The target of data set [1] is Amyloid-beta precursor protein (Homo sapiens) (UniProt P05067). The data set can be described thus: Inhibition of amyloid beta (1 to 42) (unknown origin) aggregation at 80 uM by ThT-fluorescence assay relative to control.
Data set [2] has as its system SH-SY5Y. The data set can be described thus: Neuroprotective activity against amyloid beta (1 to 42)-induced neurotoxicity in human SH-SY5Y cells assessed as increase in cell viability at 5 to 40 uM measured after 48 hrs by WST-8 assay. The data set is classed as functional, cell-based. In general terms: Tetrazolium dyes change colour on reduction, which living cells bring about.

For data set [3], the system named is SH-SY5Y. The data set can be described thus: Antioxidant activity against human SH-SY5Y cells assessed as amyloid beta (1 to 42)-induced ROS production preincubated for 1 day prior H2O2 treatment at 1.25 uM by DCFH-DA-based fluorescence analysis relative to control. The data set is classed as functional.
Data set [4] relates to SH-SY5Y. The data set can be described thus: Neuroprotective activity against amyloid beta (1 to 42)-induced neurotoxicity in human SH-SY5Y cells assessed as increase in cell viability at 40 uM measured after 48 hrs by WST-8 assay. The data set is classed as functional, cell-based.
Data set [5] has as its system SH-SY5Y. The data set can be described thus: Neuroprotective activity against amyloid beta (1 to 42)-induced neurotoxicity in human SH-SY5Y cells assessed as increase in cell viability measured after 48 hrs by WST-8 assay. The data set is classed as functional, cell-based.
Data set [6] has as its system SH-SY5Y. The data set can be described thus: Cytotoxicity against human SH-SY5Y cells assessed as cell viability up to 40 uM measured after 48 hrs by WST-8 assay. The data set is classed as cell-based.
In data set [7] the test system is SH-SY5Y. Put plainly: Antioxidant activity in human SH-SY5Y cells assessed as inhibition of H2O2-induced ROS production preincubated for 1 day prior H2O2 treatment at 25 uM by DCFH-DA-based fluorescence analysis. The data set is classed as functional, cell-based.
Data set [8] deals with SH-SY5Y. The data set can be described thus: Neuroprotective activity against amyloid beta (1 to 42)-induced neurotoxicity in human SH-SY5Y cells assessed as increase in cell viability at 20 uM measured after 48 hrs by WST-8 assay. The data set is classed as functional, cell-based.

The structures appear in SMILES notation. Active and inactive are the calls of the source. The calls are words filed in the database; no cut-off is given here. Residues, ends and D or L forms follow the SMILES beside them. *: point of attachment. Trolox = Cc1c(C)c2c(c(C)c1O)CCC(C)(C(=O)*)O2

Sequence of Amyloid-beta precursor protein (Homo sapiens) (P05067 whole entry): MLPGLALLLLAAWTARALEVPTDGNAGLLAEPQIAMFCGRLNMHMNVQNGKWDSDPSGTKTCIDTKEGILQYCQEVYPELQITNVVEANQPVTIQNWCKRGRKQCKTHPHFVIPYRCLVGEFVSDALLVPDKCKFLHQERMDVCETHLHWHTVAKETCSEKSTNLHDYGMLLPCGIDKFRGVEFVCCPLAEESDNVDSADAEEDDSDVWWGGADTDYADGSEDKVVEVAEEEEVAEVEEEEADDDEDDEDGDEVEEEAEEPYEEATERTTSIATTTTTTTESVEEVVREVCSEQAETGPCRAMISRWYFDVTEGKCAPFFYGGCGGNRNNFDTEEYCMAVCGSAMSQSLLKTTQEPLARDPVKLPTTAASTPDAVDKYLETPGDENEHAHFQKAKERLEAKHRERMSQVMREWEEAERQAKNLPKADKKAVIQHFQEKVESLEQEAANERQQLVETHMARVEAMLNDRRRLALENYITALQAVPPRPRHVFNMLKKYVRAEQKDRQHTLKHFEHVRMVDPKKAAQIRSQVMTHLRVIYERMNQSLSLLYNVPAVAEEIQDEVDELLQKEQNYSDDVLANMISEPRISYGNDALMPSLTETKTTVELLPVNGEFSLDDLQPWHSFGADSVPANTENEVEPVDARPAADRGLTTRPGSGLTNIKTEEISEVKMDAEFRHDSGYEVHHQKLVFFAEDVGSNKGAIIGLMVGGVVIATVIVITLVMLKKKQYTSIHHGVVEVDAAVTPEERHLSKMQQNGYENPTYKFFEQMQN

Usually inhibition stands for the relative decrease from the control value, in per cent. Turning to `CC[C@H](C)[C@H](NC(=O)[C@@H](NC(=O)C1(C)CCc2c(C)c(O)c(C)c(C)c2O1)C(C)C)C(=O)N[C@@H](C)C(=O)O` (stereo partly drawn), the inhibition in data set [1] stood at 2.8%.
With `CC[C@H](C)[C@H](NC(=O)[C@@H](NC(=O)[C@@H](NC(=O)CNC(=O)CNC(=O)[C@@H](NC(=O)[C@H](CCSC)NC(=O)[C@H](CC(C)C)NC(=O)C1(C)CCc2c(C)c(O)c(C)c(C)c2O1)C(C)C)C(C)C)C(C)C)C(=O)N[C@@H](C)C(=O)O` (stereo partly drawn), in data set [1], the inhibition came out at 39.5%.
The same measure, in the same setting: in the case of `Cc1c(C)c2c(c(C)c1O)CCC(C)(C(=O)NCC(=O)N[C@H](C(=O)N[C@H](C(=O)O)C(C)C)C(C)C)O2` (stereo partly drawn) it was “inactive”.
Still for that read-out and setting: in the case of `Cc1c(C)c2c(c(C)c1O)CCC(C)(C(=O)N[C@H](C(=O)O)C(C)C)O2` (stereo partly drawn) it was “inactive”.
On the same count and under the same terms, as for `CC[C@H](C)[C@H](NC(=O)[C@@H](NC(=O)[C@@H](NC(=O)CNC(=O)C1(C)CCc2c(C)c(O)c(C)c(C)c2O1)C(C)C)C(C)C)C(=O)N[C@@H](C)C(=O)O` (stereo partly drawn) (Trolox-GVVIA-OH), the figure is 4.7%.
As for `CC[C@H](C)[C@H](NC(=O)[C@@H](NC(=O)[C@@H](NC(=O)CNC(=O)C1(C)CCc2c(C)c(O)c(C)c(C)c2O1)C(C)C)C(C)C)C(=O)N[C@@H](C)C(=O)N[C@H](C(=O)O)[C@@H](C)O` (stereo partly drawn) (Trolox-GVVIAT-OH), the inhibition in data set [1] was found to be 5%.
As to `CSCC[C@H](NC(=O)[C@H](CC(C)C)NC(=O)C1(C)CCc2c(C)c(O)c(C)c(C)c2O1)C(=O)N[C@H](C(=O)NCC(=O)NCC(=O)N[C@H](C(=O)N[C@H](C(=O)O)C(C)C)C(C)C)C(C)C` (stereo partly drawn) (Trolox-LMVGGVV-OH), in data set [1], the inhibition result is “inactive”.
Same read-out and setting: in the case of `CC[C@H](C)[C@H](NC(=O)[C@@H](NC(=O)[C@@H](NC(=O)CNC(=O)CNC(=O)[C@@H](NC(=O)[C@H](CCSC)NC(=O)[C@H](CC(C)C)NC(=O)C1(C)CCc2c(C)c(O)c(C)c(C)c2O1)C(C)C)C(C)C)C(C)C)C(=O)N[C@@H](C)C(=O)N[C@H](C(=O)O)[C@@H](C)O` (stereo partly drawn) (Trolox-LMVGGVVIAT-OH) it was 40.4%.
`Cc1c(C)c2c(c(C)c1O)CCC(C)(C(=O)N[C@H](C(=O)NCC(=O)NCC(=O)N[C@H](C(=O)N[C@H](C(=O)O)C(C)C)C(C)C)C(C)C)O2` (stereo partly drawn) (Trolox-VGGVV-OH): the inhibition entry in data set [1] was “inactive”. The outcome in the data set with SH-SY5Y [2] was inactive.
On to `CC[C@H](C)[C@H](NC(=O)[C@@H](NC(=O)[C@@H](NC(=O)CNC(=O)CNC(=O)[C@@H](NC(=O)C1(C)CCc2c(C)c(O)c(C)c(C)c2O1)C(C)C)C(C)C)C(C)C)C(=O)N[C@@H](C)C(=O)O` (stereo partly drawn) (Trolox-VGGVVIA-OH), for which the Activity was 37.6% in the data set with SH-SY5Y [3], “Dose-dependent effect” in the data set with SH-SY5Y [5] and “Non-toxic” in the data set with SH-SY5Y [6]. Moreover, in the data set on SH-SY5Y [4], the outcome was Active. This molecule displayed an inhibition in data set [1] of 17.7%. Further, in the data set on SH-SY5Y [7], the inhibition entry is “Active”.
Take `CC[C@H](C)[C@H](NC(=O)[C@@H](NC(=O)[C@@H](NC(=O)CNC(=O)CNC(=O)[C@@H](NC(=O)C1(C)CCc2c(C)c(O)c(C)c(C)c2O1)C(C)C)C(C)C)C(C)C)C(=O)N[C@@H](C)C(=O)N[C@H](C(=O)O)[C@@H](C)O` (stereo partly drawn) (Trolox-VGGVVIAT-OH): the result with SH-SY5Y [8] was Active. Besides, the result in the data set with SH-SY5Y [4] was inactive. In data set [1], the inhibition came to 17.3%. In the data set on SH-SY5Y [6], the Activity result is given as “Non-toxic”.
In the case of `CC[C@H](C)[C@H](NC(=O)[C@@H](NC(=O)C1(C)CCc2c(C)c(O)c(C)c(C)c2O1)C(C)C)C(=O)N[C@@H](C)C(=O)N[C@H](C(=O)O)[C@@H](C)O` (stereo partly drawn) (Trolox-VIAT-OH), in data set [1], the inhibition came to 6.6%.
As to `Cc1c(C)c2c(c(C)c1O)CCC(C)(C(=O)O)O2` (stereo not drawn) [TROLOX], the Activity in the data set with SH-SY5Y [3] was 23.6%. Also, the inhibition entry in the data set on SH-SY5Y [7] was “Active”.
